{"source": "PubChem BioAssay AID463229", "about": "(Broad Institute, 2010)", "note": "Calls of active or inactive are those of the source.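 The calls were made as follows: active = compounds raising the signal whose fitted half-maximal concentration is at or below their top tested dose (cut at about 25 µM in these data); inconclusive = flat fit at 30 to 70% activity, or a poor fit; inactive = the rest.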"}
{"system": "INS-1E rat beta cells, no cytokines, CellTiter-Glo ATP, 48 h", "test": "ATP level change in INS-1E without cytokines, dose response, counter-screen for beta-cell apoptosis protection project, INS-1E rat cells, ATP luminescence, cherry pick (AID 463229)"}
{"compound": "C#CCOCCOCCOCCNc1nc(N2CCN(C(=O)CCCCCCCCCCNC(=O)[C@H]([C@@H](C)CC)n3cc(CCCCN=C(N)N)nn3)CC2)nc(N2CCN(C(=O)CCCCCCCCCCNC(=O)[C@H](CCCCN)n3cc(C)nn3)CC2)n1", "AC50": "6.28 µM"}
{"compound": "Cc1c(Cl)c([N+](=O)[O-])nn1Cc1ccc(C(=O)N/N=C\\c2cc(Cl)ccc2O)o1", "AC50": "6.95 µM"}
{"compound": "C/C(=N\\Nc1nc2ccccc2[nH]1)c1ccccn1", "AC50": "0.56 µM"}
{"compound": "O=C(CSc1nnc(Cn2nnc3ccccc32)o1)N(Cc1ccc(Cl)cc1)c1ccccc1", "AC50": "6.17 µM"}
{"compound": "CC(=O)N1CCc2cc(S(=O)(=O)NCCC3=CCCCC3)ccc21", "AC50": "7.63 µM"}
{"compound": "Cc1ccc(-c2csc(N3CCC(NS(=O)(=O)c4ccc5c(c4)OCCO5)CC3)n2)cc1", "AC50": "6.85 µM"}
{"compound": "C=CC(C)(C)c1c(O)c(CC=C(C)C)c(O)c2c(=O)c3ccc(O)c(O)c3oc12", "AC50": "5.39 µM"}
{"compound": "COc1cccc(N=Nc2ccc(O)c3ncccc23)c1", "AC50": "6.47 µM"}
{"compound": "Cc1[nH]c2ccccc2c1CN1CCC(Cc2ccccc2)CC1", "AC50": "3.99 µM"}
{"compound": "Cc1ccccc1NC(=S)N/N=C/c1ccc(O)cc1O", "AC50": "14.6 µM"}
{"compound": "COC(=O)c1ccccc1NC1=C/C(=N\\S(=O)(=O)c2cccs2)c2ccccc2C1=O", "AC50": "8.33 µM"}
{"compound": "COc1cc(/C=C2\\CC/C(=C\\c3cc(OC)c(O)c(OC)c3)C2=O)cc(OC)c1O", "AC50": "4.29 µM"}
{"compound": "CC(C)(C)C(=O)Nc1ccc(C(=O)N/N=C/c2ccccc2OC(=O)c2ccc(Cl)cc2)cc1", "AC50": "11.8 µM"}
{"compound": "O=C(Nc1nc2c(F)cc(F)cc2s1)c1ccccn1", "AC50": "6.37 µM"}
{"compound": "CCN(CC)CCNc1ncnc2c1sc1nc(N3CCOCC3)c3c(c12)CC(C)(C)SC3", "AC50": "14.2 µM"}
{"compound": "C#CCOCCOCCOCCNc1nc(N2CCN(C(=O)CCCCCCCCCCNC(=O)[C@H]([C@@H](C)CC)n3cc(CCCCCN)nn3)CC2)nc(N2CCN(C(=O)CCCCCCCCCCNC(=O)[C@H]([C@@H](C)CC)n3cc(CCCCN=C(N)N)nn3)CC2)n1", "AC50": "6.72 µM"}
{"compound": "CC1Cc2cc(S(=O)(=O)N3CCC(C(=O)N4CCN(c5ccccc5F)CC4)CC3)ccc2N1C(=O)C1CC1", "note": "(configuration not stated)", "AC50": "8 µM"}
{"compound": "O=C(Nc1ccc(OCC(=O)N2CCC(Cc3ccccc3)CC2)cc1)c1ccco1", "AC50": "7 µM"}
{"compound": "O=[N+]([O-])c1cccc2c(N3CCCC3)ccnc12", "AC50": "7.28 µM"}
{"compound": "Cc1ccccc1Oc1cc(-n2ncc(Cl)c(Cl)c2=O)ncn1", "AC50": "3.98 µM"}
{"compound": "Cc1ccccc1OCC(O)CNC1CCC(NCC(O)COc2ccccc2C)CC1", "note": "(configuration not stated)", "AC50": "6.66 µM"}
{"compound": "COc1ccc(S(=O)(=O)Nc2cc(SCC(=O)O)c(O)c3ccccc23)cc1", "AC50": "8.19 µM"}
{"compound": "Cc1cc(C)c2nc(NNC(=O)c3ccc(S(=O)(=O)N4CCc5ccccc5C4)cc3)sc2c1", "AC50": "3.39 µM"}
{"compound": "CCn1cc(C(=O)O)c(=O)c2cc(F)c(N/N=C/c3ccccc3[N+](=O)[O-])cc21", "AC50": "7.62 µM"}
{"compound": "N/C(=N\\OC(=O)c1cccc(Cn2cc(C(F)(F)F)ccc2=O)c1)c1ccccc1", "AC50": "7.71 µM"}
{"compound": "C(=C\\c1nc(N2CCCCCC2)c2ccccc2n1)/c1ccccc1", "AC50": "5.15 µM"}
{"compound": "COc1ccc(/C=N/Nc2cc(C)nc3ccc(Br)cc23)cc1", "AC50": "7.02 µM"}
{"compound": "O=C(/C=C/c1cccc([N+](=O)[O-])c1)c1ccc([N+](=O)[O-])o1", "AC50": "3.95 µM"}
{"compound": "CC(=O)C1=C(c2ccc(Br)cc2)C(=O)c2ccccc2C1=O", "AC50": "3.63 µM"}
{"compound": "Cc1ccc(-c2cc3cccc[n+]3cc2-c2ccc(C)cc2)cc1", "AC50": "0.566 µM"}
{"compound": "CN(C)CCCNS(=O)(=O)c1ccc(NC2CCCCCC2)c([N+](=O)[O-])c1", "AC50": "7.27 µM"}
{"compound": "C1CCC(C(CC2CCCCN2)C2CCCCC2)CC1", "note": "(configuration not stated)", "AC50": "9.74 µM"}
{"compound": "Cc1ccc(-n2c(-c3ccccc3)c[n+]3c2CCc2ccccc2-3)c(C)c1", "AC50": "1.91 µM"}
{"compound": "Cc1ccccc1/C=N/Nc1ccnc2cc(Cl)ccc12", "AC50": "6.91 µM"}
{"compound": "Cc1ccccc1NC(=O)/C=C/c1ccc([N+](=O)[O-])s1", "AC50": "6.96 µM"}
{"compound": "COc1ccc(C(=O)NC(=S)NNC(=O)c2cnccn2)cc1OC", "AC50": "7.95 µM"}
{"compound": "CCCCC1(Cc2ccc([N+](=O)[O-])cc2)C(=O)N(c2ccccc2)N(c2ccccc2)C1=O", "AC50": "3.72 µM"}
{"compound": "COc1ccccc1NC(=O)c1nc(S(=O)(=O)Cc2ccccc2)ncc1Cl", "AC50": "8.64 µM"}
{"compound": "NS(=O)(=O)c1ccc(N/N=C/c2cn(-c3ccccc3)nc2-c2cccs2)c([N+](=O)[O-])c1", "AC50": "5.61 µM"}
{"compound": "Cn1cc(/C=C/c2cc[n+](C)cc2)c2cc(Cl)ccc21", "AC50": "4.85 µM"}
{"compound": "COc1cccc(/C=N/Nc2snc(SC)c2C#N)c1O", "AC50": "5.12 µM"}
{"compound": "CCCCCn1c(=O)c(C(=O)Nc2nc3ccccc3[nH]2)c(O)c2ccccc21", "AC50": "7.03 µM"}
{"compound": "CCOC(=O)C1CCCN(S(=O)(=O)c2ccc(S(=O)(=O)N(CC)CC)cc2)C1", "note": "(configuration not stated)", "AC50": "3.8 µM"}
{"compound": "COc1ccc2nc(C)cc(N/N=C/c3ccccc3)c2c1", "AC50": "13.8 µM"}
{"compound": "COc1ccc(Br)cc1CN1CCN(Cc2c[nH]c3ccccc23)CC1", "AC50": "7.35 µM"}
{"compound": "O=C(N/N=C/c1cc([N+](=O)[O-])ccc1O)c1cccc(NC(=O)c2cccc(Cl)c2)c1", "AC50": "5.82 µM"}
{"compound": "COc1c(CC=C(C)C)cc(C2CC(=O)c3c(O)cc(O)cc3O2)cc1CC=C(C)C", "note": "(configuration not stated)", "AC50": "4.05 µM"}
{"compound": "Cc1nn(Cc2c(Cl)cccc2Cl)c(C)c1NC(=O)c1cn(-c2ccccc2)nc1-c1ccccc1", "AC50": "4.24 µM"}
{"compound": "O=c1[nH]c(=O)n(Cc2ccco2)c2c1C(C(F)(F)F)(C(F)(F)F)N=C(c1ccc(F)cc1)N2", "AC50": "1.39 µM"}
{"compound": "C=C(C)C(=O)O[C@H]1C/C(C)=C\\C(=O)/C=C(\\C)[C@H](O)[C@@H]2OC(=O)C(=C)[C@@H]21", "AC50": "14.5 µM"}
{"compound": "Cc1cc(C(=O)NC2CCCc3c2cnn3-c2cccc(C)c2C)n(C)n1", "note": "(configuration not stated)", "AC50": "0.342 µM"}
{"compound": "COc1ccc(C(=O)NN/C(C)=C/C(=O)C(F)(F)C(F)(F)C(F)(F)F)cc1", "AC50": "> 26 µM (inactive)"}
{"compound": "CCOC(=O)c1ccc(NC(=O)NCc2cccnc2)cc1", "AC50": "2.01 µM"}
{"compound": "CCC(C)(C)c1ccc(OCCCC[n+]2ccc(C)cc2)c(C(C)(C)CC)c1", "AC50": "1.91 µM"}
{"compound": "C/C(=N\\NC(=O)c1cc(C)nc2ccccc12)c1ccccn1", "AC50": "2.83 µM"}
{"compound": "CC1CCc2c(sc3nc(C(C)(C)C)nc(N4CCN(C(=O)CCl)CC4)c23)C1", "note": "(configuration not stated)", "AC50": "7.59 µM"}
{"compound": "N=c1c2c(-c3ccccc3)c(-c3ccccc3)n(Cc3ccco3)c2ncn1Cc1ccccc1", "AC50": "7.01 µM"}
